Test [1] has as its system P. aeruginosa. The test can be described thus: Checkerboard FIC/FICI assay. To be noted: for Drug B MIC: Colistin alone (checkerboard with BisEDT); for FICB / MICB: by checkerboard. It is filed as cell-based, Pseudomonas aeruginosa.
For test [2], the system named is Burkholderia cepacia complex. The test is described as follows: Checkerboard FIC/FICI assay. It is filed as cell-based, Burkholderia spp.
Test [3] deals with P. aeruginosa. The test can be described thus: Broth microdilution MIC (Example 10). It is filed as cell-based, Pseudomonas aeruginosa. To be noted: initial MIC testing.
A further test concerns fungal pathogens. The test is described as follows: Antifungal activity, NIH/NIAID sponsored study. It is filed as cell-based. To be noted: for Antifungal activity, MIC 50%: 50% endpoint; for Antifungal activity, MIC 100%: 100% endpoint.
Test [4] deals with Burkholderia cepacia complex. It is filed as cell-based, Burkholderia spp. Particulars: initial MIC testing.
Test [5] has as its system vancomycin-intermediate Staphylococcus aureus (VISA). The test can be described thus: Broth microdilution MIC (Example 12). It is filed as cell-based. Particulars: Staphylococcus aureus, VISA, VISA isolates; read-out: MIC values. On the technique in general: Broth dilution looks for growth in wells or tubes with falling amounts of substance.
The mark [6] stands for this setting: P. aeruginosa 6322, Colistin in combination with BisEDT.
Setting [7] is: P. aeruginosa 6977, Colistin in combination with BisEDT.
The mark [8] stands for this setting: P. aeruginosa 7745, Colistin in combination with BisEDT.
Setting [9] is: P. aeruginosa isolate 1553 (TOB-R, AMK-R, CIP-R).
Setting [10] is: P. aeruginosa isolate 7745 (MEM-R, CIP-R, AZT-R).
[11] abbreviates: P. aeruginosa isolate 7762 (MEM-I, CIP-I).
Where [12] appears, read: P. aeruginosa isolate 8798 (MEM-R, TOB-R, AMK-R, CIP-R, AZT-R, COL-R).
[13] abbreviates: P. aeruginosa 6977, Aztreonam in combination with BisEDT.
The mark [14] stands for this setting: B. cepacia 546, Aztreonam in combination with BisEDT, by checkerboard.

The record followed here is US20230124862A1, “BISMUTH THIOL COMPOUNDS AND COMPOSITIONS AND METHODS OF TREATING MICROBIAL CO-INFECTIONS” (Microbion Corporation, priority 2020, published 2023).

≈ marks a conversion by molar mass, not a printed value. Where “and” joins values, the source holds several entries; their conditions need not be identical. Equal entries are not always repeated. Where two headings read alike, the source gives them in different places. A value given as a limit tells only on which side of the number the result lay.

For Colistin, the “Drug B MIC” value in the test on P. aeruginosa [1] (P. aeruginosa 6322) is 0.5 µg/mL; in the test on P. aeruginosa [1] (P. aeruginosa 6977), 1 µg/mL; in the test with P. aeruginosa [1] (P. aeruginosa 7745), 0.5 µg/mL; in the test with P. aeruginosa [1] (P. aeruginosa 9108) it was 0.0005 µg/mL; with P. aeruginosa [1] (isolate 8798 (organism name not given)), more than 0.256 µg/mL. In addition, the FICB is listed as 1 in the test with P. aeruginosa [1] (setting [6]); 1 with P. aeruginosa [1] (setting [7]); 1 in the test on P. aeruginosa [1] (setting [8]); 1 in test [2] (B. multivorans 1795, FIC of Colistin (Drug B) in combination with BisEDT). Besides, the MICB is 0.5 µg/mL in the test with P. aeruginosa [1] (setting [6]), 1 µg/mL with P. aeruginosa [1] (setting [7]) and 0.5 µg/mL in the test with P. aeruginosa [1] (setting [8]).
With `O=C(O)c1cn(C2CC2)c2cc(N3CCNCC3)c(F)cc2c1=O` [CIP], the MIC – broadly, the lowest concentration found to suppress growth – against P. aeruginosa [3] (setting [9]) worked out at 4 µg/mL (≈ 12.1 µM); in the test on P. aeruginosa [3] (setting [10]), 4 µg/mL (≈ 12.1 µM); against P. aeruginosa [3] (setting [11]) it was 7 µg/mL (≈ 21.1 µM); with P. aeruginosa [3] (setting [12]), 4 µg/mL (≈ 12.1 µM); in the test on P. aeruginosa [1] (isolate 103 (ATCC 25922), during FIC testing, each agent tested alone for QC, one replicate) it was 1 µg/mL.
For the compound `C1C[S][Bi]([S]CC[S][Bi]2[S]CC[S]2)[S]1` [BisEQT], the “Antifungal activity, MIC 50%” value in the test on fungal pathogens (A. fumigatus AF1) came to 8 µg/mL; with fungal pathogens (A. fumigatus AF2), 4 µg/mL; in the test with fungal pathogens (A. fumigatus AF3), 4 µg/mL; in the test on fungal pathogens (C. albicans CA1), 4 µg/mL; with fungal pathogens (C. albicans CA2), 2 µg/mL; in the test with fungal pathogens (C. albicans CA3), 4 µg/mL. For the same compound, the “Antifungal activity, MIC 50%” value in the test on fungal pathogens (C. auris Cau1) turned out to be 4 µg/mL; in the test on fungal pathogens (C. auris Cau2) it was 2 µg/mL; in the test on fungal pathogens (C. auris Cau3), 4 µg/mL; in the test with fungal pathogens (C. krusei ATCC6258), 1 µg/mL; in the test on fungal pathogens (C. neoformans CN1) it was 2 µg/mL; in the test on fungal pathogens (C. neoformans CN2) it was 4 µg/mL. Moreover, the “Antifungal activity, MIC 50%” value in the test with fungal pathogens (C. neoformans CN3) stood at 4 µg/mL; with fungal pathogens (C. parapsilosis ATCC22019) it was 1 µg/mL; in the test with fungal pathogens (P. variotii CLSI QC) it was 4 µg/mL; with fungal pathogens (R. arrhizus RA1), 8 µg/mL; with fungal pathogens (R. arrhizus RA2), 4 µg/mL; in the test with fungal pathogens (R. arrhizus RA3) it was 4 µg/mL. For the same compound, the “Antifungal activity, MIC 100%” value in the test on fungal pathogens (A. fumigatus AF1) was 16 µg/mL; in the test with fungal pathogens (A. fumigatus AF2) it was 16 µg/mL; in the test with fungal pathogens (A. fumigatus AF3) it was 16 µg/mL; in the test with fungal pathogens (C. albicans CA1) it was 8 µg/mL; with fungal pathogens (C. albicans CA2), 8 µg/mL; in the test on fungal pathogens (C. albicans CA3) it was 16 µg/mL. Moreover, the “Antifungal activity, MIC 100%” value with fungal pathogens (C. auris Cau1) is 16 µg/mL; with fungal pathogens (C. auris Cau2) it was 8 µg/mL; in the test on fungal pathogens (C. auris Cau3) it was 8 µg/mL; in the test with fungal pathogens (C. krusei ATCC6258), 4 µg/mL; in the test with fungal pathogens (C. neoformans CN1) it was 8 µg/mL; with fungal pathogens (C. neoformans CN2), 8 µg/mL. The “Antifungal activity, MIC 100%” value in the test with fungal pathogens (C. neoformans CN3) came to 16 µg/mL; in the test with fungal pathogens (C. parapsilosis ATCC22019) it was 4 µg/mL; with fungal pathogens (P. variotii CLSI QC), 16 µg/mL; in the test with fungal pathogens (R. arrhizus RA1), 16 µg/mL; in the test with fungal pathogens (R. arrhizus RA2), 8 µg/mL; in the test with fungal pathogens (R. arrhizus RA3), 8 µg/mL.
Regarding `C[C@H]1[C@H](NC(=O)/C(=N\OC(C)(C)C(=O)O)c2csc(N)n2)C(=O)N1S(=O)(=O)O` [AZT], the MIC in the test with P. aeruginosa [3] (P. aeruginosa isolate 103, QC strain) worked out at […]; against P. aeruginosa [3] (P. aeruginosa isolate 1497 (TOB-R AMK-R, CIP-I, AZT-R, COL-R)), […]; against P. aeruginosa [3] (P. aeruginosa isolate 1530 (TOB-R, AMK-R, CIP-R)), […]; against P. aeruginosa [3] (setting [9]), […]; against P. aeruginosa [3] (P. aeruginosa isolate 6322 (MEM-R, TOB-R, AMK-R, CIP-R, AZT-R)) it was […]; against P. aeruginosa [3] (P. aeruginosa isolate 6977 (MEM-I, TOB-R, CIP-R, AZT-I)), […]. Moreover, the MIC in the test on P. aeruginosa [3] (setting [10]) stood at […]; against P. aeruginosa [3] (P. aeruginosa isolate 7754 (MEM-R, TOB-R, CIP-R, AZT-I)) it was […]; against P. aeruginosa [3] (setting [11]) it was […]; in the test on P. aeruginosa [3] (P. aeruginosa isolate 7871 (MEM-R, AZT-I)), […]; with P. aeruginosa [3] (P. aeruginosa isolate 7874), […]; against P. aeruginosa [3] (P. aeruginosa isolate 7886 (MEM-R, CIP-R, AZT-R)) it was […]. The MIC is […] against P. aeruginosa [3] (P. aeruginosa isolate 8797 (MEM-R, TOB-R, AMK-R, CIP-R, AZT-R, COL-R)); […] with P. aeruginosa [3] (setting [12]); […] against P. aeruginosa [3] (P. aeruginosa isolate 9108 (CIP-R, AZT-I)); […] in test [2] (B. cenocepacia isolate 0548, during FIC testing); […] in test [2] (B. cenocepacia isolate 0813, during FIC testing); […] in test [2] (B. cepacia isolate 0546, during FIC testing). The MIC in test [2] (B. cepacia isolate 1793, during FIC testing) stood at 128 µg/mL; in test [2] (B. multivorans isolate 1795, during FIC testing), […]; in test [4] (B. cenocepacia isolate 0548 (CIP-R)) it was […]; in test [4] (B. cenocepacia isolate 0813 (CPI-I)), […]; in test [4] (B. cenocepacia isolate 1631), […]; in test [4] (B. cenocepacia isolate 1783) it was […]. The MIC in test [4] (B. cepacia isolate 0546) is […]; in test [4] (B. cepacia isolate 0547), […]; in test [4] (B. cepacia isolate 1794) it was […]; in test [4] (B. cepacia isolate 9040) it was […]; in test [4] (B. multivorans isolate 1580 (CIP-R)) it was […]; in test [4] (B. multivorans isolate 1791), […]. For the same compound, the MIC stood at […] in test [4] (B. multivorans isolate 1795 (MEM-I, CIP-R)); […] in test [4] (B. multivorans isolate 5665 (CIP-I)); […] in test [4] (B. multivorans isolate 8952 (CIP-I)).
Consider `C[C@H]1[C@H](NC(=O)/C(=N\OC(C)(C)C(=O)O)c2csc(N)n2)C(=O)N1S(=O)(=O)O` [Aztreonam], for which the FICB is […] in the test with P. aeruginosa [1] (setting [13]); […] in test [2] (B. cenocepacia 548, FIC of Aztreonam (Drug B) in combination with BisEDT); […] in test [2] (B. cenocepacia 813, FIC of Aztreonam (Drug B) in combination with BisEDT); […] in test [2] (setting [14]); […] in test [2] (B. cepacia 1793, FIC of Aztreonam (Drug B) in combination with BisEDT); […] in test [2] (B. multivorans 1795, FIC of Aztreonam (Drug B) in combination with BisEDT). In addition, the MICB is […] with P. aeruginosa [1] (setting [13]); […] in test [2] (B. cenocepacia 548, MIC of Aztreonam (Drug B) in combination with BisEDT); […] in test [2] (B. cenocepacia 813, MIC of Aztreonam (Drug B) in combination with BisEDT); […] in test [2] (setting [14]); 128 µg/mL in test [2] (B. cepacia 1793, MIC of Aztreonam (Drug B) in combination with BisEDT); […] in test [2] (B. multivorans 1795, MIC of Aztreonam (Drug B) in combination with BisEDT). Also, the MIC in test [2] (B. multivorans 1795, Aztreonam alone, panel with BisEDT, read-out: Drug B MIC) amounted to […].
As for `NC[C@H]1O[C@H](O[C@H]2[C@H](O)[C@@H](O[C@H]3O[C@H](CO)[C@@H](O)[C@H](N)[C@H]3O)[C@H](N)C[C@@H]2N)[C@H](N)C[C@@H]1O` [Topramycin], the FICB in test [2] (B. cepacia 546, Topramycin in combination with BisEDT, by checkerboard) is on record as 0.5.
Regarding `CC(=O)NC[C@H]1CN(c2ccc(N3CCOCC3)c(F)c2)C(=O)O1` [linezolid, reference compound], in test [5], the minimum inhibitory concentration (MIC) was less than 4 µg/mL.
